Test results reported in PMC11439681, “The identification of potent dual-target monopolar spindle 1 (MPS1) and histone deacetylase 8 (HDAC8) inhibitors through pharmacophore modeling, molecular docking, molecular dynamics simulations, and biological evaluation” (Frontiers in Pharmacology, 2024).

Test: In vivo pharmacokinetic study
Details: mouse, plasma, ip, BALB/c mice, i.p., 5 mg/kg
Experimental: MPH-5 was administered intraperitoneally to BALB/c mice at a dose of 5 mg/kg. The blood samples (0.25 mL) were collected at 0.25, 0.5, 1, 2, 4, 8, 16 and 24 h after dosing and centrifuged to obtain the plasma fraction. Plasma samples (50 μL) were transferred into a 96-well plate, followed by the addition of an internal standard solution of methanol/acetonitrile (1:1, v/v) (200 μL). After vortexing for 5 min, the mixture was centrifuged (12,000 rpm for 5 min) to obtain the supernatant (60 μL). A liquid chromatography-tandem mass spectrometry (LC-MS/MS) system was used for the pharmacokinetic study. Data were processed using Phoenix software.

SMILES: Cn1cc(-c2cc3cnc(Nc4ccc(-c5cncn5/C=C/C(=O)NO)cc4Cl)cc3n2C(=O)OC(C)(C)C)cn1 [MPH-5]
- AUC (read-out: AUC (h·nmol/L), area under the drug-time curve): 13800 nmol·h/L
- Cmax (read-out: Cmax (nmol/L), maximum plasma concentration): 2920 nmol/L
- bioavailability (read-out: F (%), bioavailability): 85%
- half-life (read-out: T1/2 (h), elimination half-life (converted)): 3.46 h
